These are literature values, as cited in patent US7998959B2, “Modulators of 11-β hydroxyl steroid dehydrogenase type 1, pharmaceutical compositions thereof, and methods of using the same” (Incyte Corporation, priority 2006, dated 2011).

One data set has as its system healthy volunteers. The settings on record: after seven days of treatment.
In data set [1] the test system is primary hippocampal cells.
Data set [2] concerns pancreatic islet cells of ob/ob mice.

Take `CC1(C)[C@@H](OC(=O)CCC(=O)O)CC[C@]2(C)[C@H]3C(=O)C=C4[C@@H]5C[C@@](C)(C(=O)O)CC[C@]5(C)CC[C@@]4(C)[C@]3(C)CC[C@@H]12` [carbenoxolone]: in the data set on healthy volunteers, the IOP reduced is 18%. In the data set on bone nodule formation, the “negative effects of glucocorticoids on bone nodule formation” value is “attenuate the negative effects of glucocorticoids on bone nodule formation”. Moreover, in data set [1], the “protection from glucocorticoid-mediated exacerbation of excitatory amino acid neurotoxicity” value is on record as “protects the cells from glucocorticoid-mediated exacerbation of excitatory amino acid neurotoxicity”. In data set [2], the glucose-stimulated insulin release result was “improves glucose-stimulated insulin release”.
